Experimental data from EP1401829B1, “NOVEL HETEROCYCLIC ANTIBACTERIAL COMPOUNDS” (Microbiotix, Inc., priority 2001, dated 2002).
Values after ≈ are worked out from the molar mass of the structure shown. Like-named read-outs stand apart in the source and are kept apart here.

Legend:
[1] = system: E. fecium; assay: Minimal Inhibitory Concentration (MIC) determination, 96 well plates; format: cell-based, Enterococcus fecium; settings: Enterococcus; HBI medium, 16 to 18 hours at 37°C; read-out: MIC (µg/ml) E. fecium
Protocol: (§1) The following methods were used to characterize representative compounds. Minimal Inhibitory Concentration (MIC) determinations. MIC values were determined in 96 well plates, with bacterial growth monitored at OD 600 nm in 200µl following an initial bacterial seeding at approximately 1x10^5 colony forming units (CFU)/ml. Each drug is evaluated at five concentrations, with five data points at each dilution. MIC values (µg/ml) were determined against actively growing cultures in Heart-Brain Infusion (HBI) medium. Cell growth in cultures supplemented with a test compound was calculated as a percent of control at OD 600 nm after 16 to 18 hours at 37°C. […] Polymerase IIIC (Pol IIIC) assay. DNA polymerase activity (or inhibition thereof) was measured in a 96-well plate format. B. subtilis Pol IIIC was isolated as described by Hammond and Brown (Protein Expr. Purif., 3: 65-70 (1992)). Each 25 µl assay contained 30 mM Tris, pH 7.5, 10 mM magnesium acetate, 4 mM dithiothreitol, 20% glycerol, with 25 µM dATP, dCTP, dGTP and 10 µM dTTP (^3H-labelled at 1.44 Ci/mmole) and 0.4 mg/ml activated calf thymus DNA as substrates, as described previously (see Barnes et al, op. cit). Assays were initiated by the addition of 0.025 to 0.06 units of enzyme 1 unit is the amount required to incorporate 250 pmoles of [^3H] dTMP in a standard assay), incubated for 10 minutes at 30°C and terminated by the addition of 200 µl of cold 10% trichloroacetic acid (TCA),10 mM sodium pyrophosphate. Precipitated labeled DNA was collected on glass fiber filter plates, washed, dried, and counted in a liquid scintillation counter. Determination of Ki values. DNA polymerase activity was measured in a 96-well plate format in the absence of dGTP or dATP, depending on the structure of the test compound. Each 25 µl assay contained 30 mM Tris, pH 7.5, 10 mM magnesium acetate, 4 mM dithiothreitol, 20% glycerol, with 25 µM dATP, dCTP, and 10 µM dTTP (^3H-labelled at 1.44 Ci/mmole) and 0.4 mg/ml activated calf thymus DNA as substrates, as described previously. […] Assays were initiated by the addition of 0.025 to 0.06 units of enzyme (1 unit is the amount required to incorporate 250 pmoles of [^3H] dTMP in a standard assay), incubated for 10 minutes at 30 °C and terminated by the addition of 200 µl of cold 10% trichloroacetic acid, 10 mM sodium pyrophosphate. Precipitated labeled DNA was collected on glass fiber filter plates, washed, dried, and counted in a liquid scintillation counter. Ki is the concentration of test compound that reduces the control polymerase IIIC activity by 50 percent.
(§2) MIC values were determined for the Gram positive bacteria Bacillus subtilis, Staphylococcus aureus (two strains), Enterococcus fecalis, Enterococcus fecium, and for the Gram negative bacterium Escherichia coli.

[2] = system: E. fecalis; assay: as above; format: cell-based, Enterococcus fecalis; settings: Enterococcus; HBI medium, 16 to 18 hours at 37°C; read-out: MIC (µg/ml) E. fecalis
Protocol: as §1, §2

[3] = system: B. subtilis; assay: as above; format: cell-based, Bacillus subtilis; settings: Bacillus subtilis; HBI medium, 16 to 18 hours at 37°C; read-out: MIC (µg/ml) B. subtilis
Protocol: as §1, §2

[4] = system: E. coli; assay: as above; format: cell-based, Escherichia coli; settings: Escherichia coli, read-out: MIC (µg/ml) E. coli
Protocol: (§3) The following methods were used to characterize representative compounds. Minimal Inhibitory Concentration (MIC) determinations. MIC values were determined in 96 well plates, with bacterial growth monitored at OD 600 nm in 200µl following an initial bacterial seeding at approximately 1x10^5 colony forming units (CFU)/ml. Each drug is evaluated at five concentrations, with five data points at each dilution. MIC values (µg/ml) were determined against actively growing cultures in Heart-Brain Infusion (HBI) medium. Cell growth in cultures supplemented with a test compound was calculated as a percent of control at OD 600 nm after 16 to 18 hours at 37°C. This plate format conserves test compound and provides precise, quantitative data with low standard deviation determinations. Polymerase IIIC (Pol IIIC) assay. DNA polymerase activity (or inhibition thereof) was measured in a 96-well plate format. B. subtilis Pol IIIC was isolated as described by Hammond and Brown (Protein Expr. Purif., 3: 65-70 (1992)). Each 25 µl assay contained 30 mM Tris, pH 7.5, 10 mM magnesium acetate, 4 mM dithiothreitol, 20% glycerol, with 25 µM dATP, dCTP, dGTP and 10 µM dTTP (^3H-labelled at 1.44 Ci/mmole) and 0.4 mg/ml activated calf thymus DNA as substrates, as described previously (see Barnes et al, op. cit). Assays were initiated by the addition of 0.025 to 0.06 units of enzyme 1 unit is the amount required to incorporate 250 pmoles of [^3H] dTMP in a standard assay), incubated for 10 minutes at 30°C and terminated by the addition of 200 µl of cold 10% trichloroacetic acid (TCA),10 mM sodium pyrophosphate. Precipitated labeled DNA was collected on glass fiber filter plates, washed, dried, and counted in a liquid scintillation counter. Determination of Ki values. DNA polymerase activity was measured in a 96-well plate format in the absence of dGTP or dATP, depending on the structure of the test compound. Each 25 µl assay contained 30 mM Tris, pH 7.5, 10 mM magnesium acetate, 4 mM dithiothreitol, 20% glycerol, with 25 µM dATP, dCTP, and 10 µM dTTP (^3H-labelled at 1.44 Ci/mmole) and 0.4 mg/ml activated calf thymus DNA as substrates, as described previously. To each well were added 2 µl of compound solution to give final concentrations ranging from 20 - 0.027 µg/ml in the assay. Assays were initiated by the addition of 0.025 to 0.06 units of enzyme (1 unit is the amount required to incorporate 250 pmoles of [^3H] dTMP in a standard assay), incubated for 10 minutes at 30 °C and terminated by the addition of 200 µl of cold 10% trichloroacetic acid, 10 mM sodium pyrophosphate. Precipitated labeled DNA was collected on glass fiber filter plates, washed, dried, and counted in a liquid scintillation counter. Ki is the concentration of test compound that reduces the control polymerase IIIC activity by 50 percent.
as §2

[5] = biological target: T1, B. subtilis Pol IIIC (Bacillus subtilis, UniProt P13267); assay: Polymerase IIIC (Pol IIIC) assay, determination of Ki values; format: biochemical; settings: Ki (µM) Pol IIIC, assay in absence of dGTP or dATP; Ki is the concentration that reduces control polymerase IIIC activity by 50 percent
T1 construct: made in house
T1 sequence (P13267 whole entry): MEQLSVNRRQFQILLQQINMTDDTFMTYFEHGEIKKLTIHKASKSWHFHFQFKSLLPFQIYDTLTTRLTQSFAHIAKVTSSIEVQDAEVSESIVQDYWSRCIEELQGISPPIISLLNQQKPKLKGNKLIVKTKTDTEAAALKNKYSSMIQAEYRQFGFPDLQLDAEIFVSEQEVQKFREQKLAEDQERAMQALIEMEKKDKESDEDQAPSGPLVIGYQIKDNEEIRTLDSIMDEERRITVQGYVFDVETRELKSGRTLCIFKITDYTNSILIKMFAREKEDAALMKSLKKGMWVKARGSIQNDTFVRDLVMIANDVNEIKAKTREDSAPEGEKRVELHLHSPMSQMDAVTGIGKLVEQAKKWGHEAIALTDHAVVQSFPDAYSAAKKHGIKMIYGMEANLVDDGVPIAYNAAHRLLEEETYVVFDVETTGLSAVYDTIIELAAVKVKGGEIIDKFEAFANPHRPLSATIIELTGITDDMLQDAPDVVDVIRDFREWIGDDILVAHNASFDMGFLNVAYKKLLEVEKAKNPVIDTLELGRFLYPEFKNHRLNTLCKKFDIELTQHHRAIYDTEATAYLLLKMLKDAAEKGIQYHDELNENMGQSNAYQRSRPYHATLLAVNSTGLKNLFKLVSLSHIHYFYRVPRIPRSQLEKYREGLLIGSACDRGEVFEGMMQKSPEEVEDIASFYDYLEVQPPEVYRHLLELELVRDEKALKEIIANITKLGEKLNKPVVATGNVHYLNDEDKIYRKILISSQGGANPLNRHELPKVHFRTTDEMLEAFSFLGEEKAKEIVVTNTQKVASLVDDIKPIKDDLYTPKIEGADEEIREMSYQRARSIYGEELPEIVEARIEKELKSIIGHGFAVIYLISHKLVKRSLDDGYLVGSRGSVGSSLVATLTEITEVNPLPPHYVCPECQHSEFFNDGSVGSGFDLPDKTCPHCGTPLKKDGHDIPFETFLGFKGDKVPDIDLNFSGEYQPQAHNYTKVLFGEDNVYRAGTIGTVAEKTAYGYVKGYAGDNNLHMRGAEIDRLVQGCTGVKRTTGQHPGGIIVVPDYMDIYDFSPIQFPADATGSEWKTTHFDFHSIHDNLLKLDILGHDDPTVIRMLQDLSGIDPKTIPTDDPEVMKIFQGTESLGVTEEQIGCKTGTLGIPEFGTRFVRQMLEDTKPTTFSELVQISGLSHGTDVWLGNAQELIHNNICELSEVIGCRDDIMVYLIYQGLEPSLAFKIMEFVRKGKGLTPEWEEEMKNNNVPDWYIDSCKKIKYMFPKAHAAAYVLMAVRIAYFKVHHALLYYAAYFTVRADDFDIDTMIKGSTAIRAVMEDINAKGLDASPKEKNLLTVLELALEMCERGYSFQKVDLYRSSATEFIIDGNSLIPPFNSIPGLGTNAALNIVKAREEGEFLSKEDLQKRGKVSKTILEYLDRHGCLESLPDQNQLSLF
Protocol: as §1

[6] = system: S. aureus; assay: Minimal Inhibitory Concentration (MIC) determination, 96 well plates; format: cell-based, Staphylococcus aureus; settings: Staphylococcus aureus; HBI medium, 16 to 18 hours at 37°C; read-out: MIC (µg/ml) S. aureus
Protocol: as §3, §2

[7] = system: S.aureus (Smith); assay: as above; format: cell-based, Staphylococcus aureus; settings: Staphylococcus aureus; HBI medium, 16 to 18 hours at 37°C; read-out: MIC (µg/ml) S.aureus (Smith)
Protocol: as §1, §2

[8] = HBI medium, 16 to 18 hours at 37°C

SMILES | MIC [1] [µg/mL] | MIC [2] [µg/mL] | MIC [3] [µg/mL] | MIC [4, 8] [µg/mL] | Ki [5] [µM] | MIC [6] [µg/mL] | MIC [7] [µg/mL] | MIC [4] [µg/mL]
CCc1cc(Nc2cc(=O)n(CCCCN3CCN(c4ncc5c(=O)c(C(=O)O)cn(CC)c5n4)CC3)c(=O)[nH]2)ccc1C [Compound 79, 3-{4-[1-(1-ethyl-3-carboxy-4-oxo-6,8-diaza-7-quinolyl)-4-piperazinyl]butyl}-6-(3-ethyl-4-methylanilino)uracil] | 3.7 (≈ 6.14 µM) | 2.5 (≈ 4.15 µM) | 0.156 (≈ 0.259 µM) | > 80 | 0.028 | 1.25 (≈ 2.07 µM) | 0.95 (≈ 1.58 µM) | 
CCc1cc(Nc2cc(=O)n(CCCCCN3CCCC4CN(c5cc6c(cc5F)c(=O)c(C(=O)O)cn6CC)CC43)c(=O)[nH]2)ccc1C (centres unmarked) [Compound 80, 3-{5-[1-(1-ethyl-3-carboxy-4-oxo-6-fluoro-7-quinolyl)-3-(1,3-diazabicyclononyl)]pentyl}-6-(3-ethyl-4-methylanilino)uracil] | 20 (≈ 29.7 µM) | 12.5 (≈ 18.6 µM) | 2.5 (≈ 3.72 µM) |  | 0.037 | 7.5 (≈ 11.1 µM) | 5 (≈ 7.43 µM) | 0.8 (≈ 1.19 µM)
CCc1cc(Nc2cc(=O)n(CCCCCN3CCC4CN(c5cc6c(cc5F)c(=O)c(C(=O)O)cn6C5CC5)CC43)c(=O)[nH]2)ccc1C (centres unmarked) [Compound 81, 3-{5-[1-(1-cyclopropyl-3-carboxy-4-oxo-6-fluoro-7-quinolyl)-3-(1,3-diazabicyclooctyl)]pentyl}-6-(3-ethyl-4-methylanilino)uracil] | 12.5 (≈ 18.6 µM) | 3.7 (≈ 5.52 µM) | 1.25 (≈ 1.86 µM) | > 80 | 0.04 | 5 (≈ 7.45 µM) | 2.5 (≈ 3.73 µM) | 
CCc1cc(Nc2cc(=O)n(CCCCCN3CCCC4CN(c5cc6c(cc5F)c(=O)c(C(=O)O)cn6C5CC5)CC43)c(=O)[nH]2)ccc1C (centres unmarked) [Compound 82, 3-{5-[1-(1-cyclopropyl-3-carboxy-4-oxo-6-fluoro-7-quinolyl)-3-(1,3-diazabicyclononyl)]pentyl}-6-(3-ethyl-4-methylanilino)uracil] | > 80 | 20 (≈ 29.2 µM) | 1.25 (≈ 1.83 µM) | > 80 | 0.041 | 2.5 (≈ 3.65 µM) | 1.25 (≈ 1.83 µM) | 
CCc1cc(Nc2cc(=O)n(CCCCCNC3CCN(c4cc5c(cc4F)c(=O)c(C(=O)O)cn5C4CC4)C3)c(=O)[nH]2)ccc1C (centres unmarked) [Compound 83, 3-{5-[1-(1-cyclopropyl-3-carboxy-4-oxo-6-fluoro-7-quinolyl)-3-(pyrrolidinylamino)]pentyl}-6-(3-ethyl-4-methylanilino)uracil] | 40 (≈ 62 µM) | 5 (≈ 7.75 µM) | 3.7 (≈ 5.74 µM) | > 80 | 0.041 | 20 (≈ 31 µM) | 5 (≈ 7.75 µM) | 
